Assay results taken from patent publication US10344060B2 (priority 2013, dated 2019).

Target: hNav1.7 (Homo sapiens, UniProt Q15858)
Experiment: cell-based
Format: cell-based
Conditions: for Nav1.4/Nav1.7 / Nav1.5/Nav1.7: ratio of PX tonic IC50 values, Table 11; for IC50: Table 12, PatchXpress, tonic block, read-out: PX hNav1.7 Tonic IC50

Chain of hNav1.7 (Q15858 whole entry): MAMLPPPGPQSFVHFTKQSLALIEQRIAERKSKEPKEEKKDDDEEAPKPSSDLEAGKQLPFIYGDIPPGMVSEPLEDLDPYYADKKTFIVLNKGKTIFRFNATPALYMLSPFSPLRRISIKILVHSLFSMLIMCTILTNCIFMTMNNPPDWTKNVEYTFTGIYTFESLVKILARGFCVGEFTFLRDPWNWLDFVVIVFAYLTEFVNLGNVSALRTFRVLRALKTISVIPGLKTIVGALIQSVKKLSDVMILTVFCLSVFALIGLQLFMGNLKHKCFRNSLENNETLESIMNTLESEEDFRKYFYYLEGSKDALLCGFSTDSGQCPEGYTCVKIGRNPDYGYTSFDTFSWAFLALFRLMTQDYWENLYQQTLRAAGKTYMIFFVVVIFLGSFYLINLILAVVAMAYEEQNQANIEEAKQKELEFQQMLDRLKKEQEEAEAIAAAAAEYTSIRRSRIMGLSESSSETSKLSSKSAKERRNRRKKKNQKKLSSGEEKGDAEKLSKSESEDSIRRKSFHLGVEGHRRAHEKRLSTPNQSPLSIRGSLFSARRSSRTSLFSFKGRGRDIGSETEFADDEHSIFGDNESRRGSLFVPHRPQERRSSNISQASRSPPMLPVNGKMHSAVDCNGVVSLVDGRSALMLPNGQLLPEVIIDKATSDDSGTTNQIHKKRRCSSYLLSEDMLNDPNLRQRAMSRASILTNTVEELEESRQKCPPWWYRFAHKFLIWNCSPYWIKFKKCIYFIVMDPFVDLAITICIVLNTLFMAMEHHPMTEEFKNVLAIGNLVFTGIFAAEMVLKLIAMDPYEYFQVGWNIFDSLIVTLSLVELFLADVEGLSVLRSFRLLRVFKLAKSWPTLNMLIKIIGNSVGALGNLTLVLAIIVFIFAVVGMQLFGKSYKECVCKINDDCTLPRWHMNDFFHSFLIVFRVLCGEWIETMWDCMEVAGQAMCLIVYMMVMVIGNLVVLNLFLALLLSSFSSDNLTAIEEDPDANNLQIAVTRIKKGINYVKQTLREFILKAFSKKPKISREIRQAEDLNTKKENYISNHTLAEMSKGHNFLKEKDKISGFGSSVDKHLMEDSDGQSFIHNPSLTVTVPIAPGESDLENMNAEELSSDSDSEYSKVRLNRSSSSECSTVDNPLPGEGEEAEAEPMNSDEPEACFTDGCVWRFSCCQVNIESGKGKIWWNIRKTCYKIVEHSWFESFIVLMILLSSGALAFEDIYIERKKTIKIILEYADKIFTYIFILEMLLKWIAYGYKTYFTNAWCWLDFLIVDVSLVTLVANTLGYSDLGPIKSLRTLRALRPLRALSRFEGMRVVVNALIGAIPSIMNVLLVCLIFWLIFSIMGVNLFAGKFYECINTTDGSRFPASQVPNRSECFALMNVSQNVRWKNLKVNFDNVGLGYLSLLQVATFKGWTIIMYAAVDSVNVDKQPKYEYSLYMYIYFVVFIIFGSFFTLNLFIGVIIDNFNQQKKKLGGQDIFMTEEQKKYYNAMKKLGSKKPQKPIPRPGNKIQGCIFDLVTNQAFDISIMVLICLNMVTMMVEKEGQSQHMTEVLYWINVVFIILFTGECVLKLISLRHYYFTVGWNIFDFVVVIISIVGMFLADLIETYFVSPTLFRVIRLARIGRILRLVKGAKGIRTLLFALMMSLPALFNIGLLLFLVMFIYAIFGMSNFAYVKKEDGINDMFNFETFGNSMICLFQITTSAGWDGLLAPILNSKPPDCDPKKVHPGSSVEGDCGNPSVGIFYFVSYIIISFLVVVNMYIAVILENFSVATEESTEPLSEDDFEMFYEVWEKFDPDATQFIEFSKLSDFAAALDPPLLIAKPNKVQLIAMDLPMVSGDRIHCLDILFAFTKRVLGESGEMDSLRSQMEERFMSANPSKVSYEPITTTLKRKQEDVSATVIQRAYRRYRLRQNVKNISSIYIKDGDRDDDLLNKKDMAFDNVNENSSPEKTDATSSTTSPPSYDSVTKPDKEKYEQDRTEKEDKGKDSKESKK

| SMILES | Nav1.4/Nav1.7 | Nav1.5/Nav1.7 | IC50 [nM] |
| --- | --- | --- | --- |
| CC[C@H](C)[C@H](NC(=O)[C@H](Cc1ccc(O)cc1)NC(=O)[C@H](CCCCN)NC(=O)[C@H](CCCNC(=N)N)NC(=O)[C@@H]1CSSC[C@@H]2NC(=O)[C@H](C)NC(=O)[C@H](CCCNC(=N)N)NC(=O)[C@H](CCCCN)NC(=O)[C@H](CO)NC(=O)[C@H](CC(=O)O)NC(=O)[C@@H]3CSSC[C@H](NC(=O)[C@H](CCC(=O)O)NC(=O)[C@H](CC(C)C)NC(=O)CNC(=O)[C@H](CCC(=O)O)NC(=O)[C@H](CSSC[C@H](NC(=O)[C@@H](N)CCC(=O)O)C(=O)N[C@@H](CCC(N)=O)C(=O)N[C@@H](CCCCN)C(=O)N[C@@H](Cc4c[nH]c5ccccc45)C(=O)N[C@@H](CCSC)C(=O)N[C@@H](Cc4c[nH]c5ccccc45)C(=O)N[C@@H]([C@@H](C)O)C(=O)N3)NC2=O)C(=O)N[C@@H](CCCCN)C(=O)N[C@@H](CC(C)C)C(=O)N[C@@H](Cc2c[nH]c3ccccc23)C(=O)N1)C(N)=O [compound 277] | 171 | >1818 |  |
| CCCC[C@@H]1NC(=O)[C@H](Cc2c[nH]c3ccccc23)NC(=O)[C@H](CCCCN)NC(=O)[C@H](CCC(N)=O)NC(=O)[C@@H](NC(=O)[C@H](Cc2ccc(O)cc2)NC(=O)[C@@H](N)CC(C)C)CSSC[C@@H]2NC(=O)[C@@H]3CSSC[C@@H](C(=O)N[C@@H](CCCNC(=N)N)C(=O)N[C@@H](CCCCN)C(=O)N[C@H](C(=O)N[C@H](C(N)=O)[C@@H](C)CC)[C@@H](C)CC)NC(=O)[C@H](Cc4c[nH]c5ccccc45)NC(=O)[C@H](CC(C)C)NC(=O)[C@H](CCCCN)NC(=O)[C@H](CSSC[C@H](NC(=O)[C@H]([C@@H](C)O)NC(=O)[C@H](Cc4c[nH]c5ccccc45)NC1=O)C(=O)N[C@@H](CC(=O)O)C(=O)N[C@@H](CO)C(=O)N[C@@H](CCCCN)C(=O)N[C@@H](CCCNC(=N)N)C(=O)N[C@@H](C)C(=O)N3)NC(=O)[C@H](CCCNC(=N)N)NC(=O)[C@H](CC(C)C)NC(=O)CNC(=O)[C@H](CCC(=O)O)NC2=O [compound 361] | 0 | 0 |  |
| CCCC[C@@H]1NC(=O)[C@H](Cc2c[nH]c3ccccc23)NC(=O)[C@H](CCCCN)NC(=O)[C@H](CCC(N)=O)NC(=O)[C@@H](NC(=O)[C@H](Cc2ccc(O)cc2)NC(=O)[C@@H](N)CC#N)CSSC[C@@H]2NC(=O)[C@@H]3CSSC[C@@H](C(=O)N[C@@H](CCCNC(=N)N)C(=O)N[C@@H](CCCCN)C(=O)N[C@@H](CCC(=O)O)C(=O)N[C@H](C(N)=O)[C@@H](C)CC)NC(=O)[C@H](Cc4c[nH]c5ccccc45)NC(=O)[C@H](CC(C)C)NC(=O)[C@H](CCCCN)NC(=O)[C@H](CSSC[C@H](NC(=O)[C@H]([C@@H](C)O)NC(=O)[C@H](Cc4c[nH]c5ccccc45)NC1=O)C(=O)N[C@@H](CC(=O)O)C(=O)N[C@@H](CO)C(=O)N[C@@H](CCCCN)C(=O)N[C@@H](CCCNC(=N)N)C(=O)N[C@@H](C)C(=O)N3)NC(=O)[C@H](CCCNC(=N)N)NC(=O)[C@H](CC(C)C)NC(=O)CNC(=O)[C@H](CCCCNC(=O)CCOCCOCCOCCOCCOCCOCCOCCOCCOCCOCCOCCOCCN)NC2=O [compound 456] | 68 | 967 |  |
| CCCC[C@@H]1NC(=O)[C@H](Cc2c[nH]c3ccccc23)NC(=O)[C@H](CCCCN)NC(=O)[C@H](CCC(N)=O)NC(=O)[C@@H](NC(=O)[C@H](Cc2ccc(O)cc2)NC(=O)[C@@H](N)CC(C)C)CSSC[C@@H]2NC(=O)[C@@H]3CSSC[C@@H](C(=O)N[C@@H](CCCNC(=N)N)C(=O)N[C@@H](CCCCN)C(=O)N[C@@H](CCC(=O)O)C(=O)N[C@H](C(N)=O)[C@@H](C)CC)NC(=O)[C@H](Cc4c[nH]c5ccccc45)NC(=O)[C@H](CC(C)C)NC(=O)[C@H](CCCCN)NC(=O)[C@H](CSSC[C@H](NC(=O)[C@H]([C@@H](C)O)NC(=O)[C@H](Cc4c[nH]c5ccccc45)NC1=O)C(=O)N[C@@H](CC(=O)O)C(=O)N[C@@H](CO)C(=O)N[C@@H](CCCCN)C(=O)N[C@@H](CCCNC(=N)N)C(=O)N[C@@H](C)C(=O)N3)NC(=O)[C@H](CCCNC(=N)N)NC(=O)[C@H](CC(C)C)NC(=O)CNC(=O)[C@H](CCCCNC(=O)CCOCCOCCOCCOCCOCCOCCOCCOCCOCCOCCOCCOCCN)NC2=O [compound 462] | 20 |  |  |
| CCCC[C@@H]1NC(=O)[C@H](Cc2c[nH]c3ccccc23)NC(=O)[C@H](CCCCN)NC(=O)[C@H](CCC(N)=O)NC(=O)[C@@H](NC(=O)[C@H](Cc2ccc(O)cc2)NC(=O)[C@H](CCC)NC(=O)[C@H](N)CC(C)C)CSSC[C@@H]2NC(=O)[C@@H]3CSSC[C@@H](C(=O)N[C@@H](CCCNC(=N)N)C(=O)N[C@@H](CCCCN)C(=O)N[C@@H](CCC(=O)O)C(=O)N[C@H](C(N)=O)[C@@H](C)CC)NC(=O)[C@H](Cc4c[nH]c5ccccc45)NC(=O)[C@H](CC(C)C)NC(=O)[C@H](CCCCN)NC(=O)[C@H](CSSC[C@H](NC(=O)[C@H]([C@@H](C)O)NC(=O)[C@H](Cc4c[nH]c5ccccc45)NC1=O)C(=O)N[C@@H](CC(=O)O)C(=O)N[C@@H](CO)C(=O)N[C@@H](CCCCN)C(=O)N[C@@H](CCCNC(=N)N)C(=O)N[C@@H](C)C(=O)N3)NC(=O)[C@H](CCCNC(=N)N)NC(=O)[C@H](CC(C)C)NC(=O)CNC(=O)[C@H](CCCCNC(=O)CCOCCOCCOCCOCCOCCOCCOCCOCCOCCOCCOCCOCCN)NC2=O [compound 473] | 34 | 180 |  |
| C#CC[C@H](N)C(=O)N[C@@H](Cc1ccc(O)cc1)C(=O)N[C@H]1CSSC[C@@H]2NC(=O)[C@@H]3CSSC[C@@H](C(=O)N[C@@H](CCCNC(=N)N)C(=O)N[C@@H](CCCCN)C(=O)N[C@@H](CCC(=O)O)C(=O)N[C@H](C(N)=O)[C@@H](C)CC)NC(=O)[C@H](Cc4ccccc4)NC(=O)[C@H](CC(C)C)NC(=O)[C@H](CCCCN)NC(=O)[C@H](CSSC[C@H](NC(=O)[C@H]([C@@H](C)O)NC(=O)[C@H](Cc4c[nH]c5ccccc45)NC(=O)[C@H](CCCC)NC(=O)[C@H](Cc4c[nH]c5ccccc45)NC(=O)[C@H](CCCCN)NC(=O)[C@H](CCC(N)=O)NC1=O)C(=O)N[C@@H](CC(=O)O)C(=O)N[C@@H](CO)C(=O)N[C@@H](CCCCN)C(=O)N[C@@H](CCCNC(=N)N)C(=O)N[C@@H](C)C(=O)N3)NC(=O)[C@H](CCCNC(=N)N)NC(=O)[C@H](CC(C)C)NC(=O)CNC(=O)[C@H](CCC(=O)O)NC2=O [compound 853] |  |  | 15.3 |
| CSCC[C@@H]1NC(=O)[C@H](Cc2c[nH]c3ccccc23)NC(=O)[C@H](CCCCN)NC(=O)[C@H](CCC(N)=O)NC(=O)[C@@H](NC(=O)[C@@H](N)Cc2ccc(O)cc2)CSSC[C@@H]2NC(=O)[C@@H]3CSSC[C@@H](C(=O)N[C@@H](CCCNC(=N)N)C(=O)N[C@@H](CCCCN)C(=O)N[C@@H](Cc4ccc(O)cc4)C(=O)N[C@@H](Cc4ccc5ccccc5c4)C(N)=O)NC(=O)[C@H](Cc4c[nH]c5ccccc45)NC(=O)[C@H](CC(C)C)NC(=O)[C@H](CCCCN)NC(=O)[C@H](CSSC[C@H](NC(=O)[C@H]([C@@H](C)O)NC(=O)[C@H](Cc4c[nH]c5ccccc45)NC1=O)C(=O)N[C@@H](CC(=O)O)C(=O)N[C@@H](CO)C(=O)N[C@@H](CCCCN)C(=O)N[C@@H](CCCNC(=N)N)C(=O)N[C@@H](C)C(=O)N3)NC(=O)[C@H](CCC(=O)O)NC(=O)[C@H](CC(C)C)NC(=O)CNC(=O)[C@H](CCC(=O)O)NC2=O [compound 233] | 265 | 433 |  |
| CCCC[C@@H]1NC(=O)[C@H](Cc2c[nH]c3ccccc23)NC(=O)[C@H](CCCCN)NC(=O)[C@H](CCC(N)=O)NC(=O)[C@@H](NC(=O)[C@H](Cc2ccc(O)cc2)NC(=O)[C@H](CCC)NC(=O)[C@@H](N)CC(C)C)CSSC[C@@H]2NC(=O)[C@@H]3CSSC[C@@H](C(=O)N[C@@H](CCCNC(=N)N)C(=O)N[C@@H](CCCCN)C(=O)N[C@@H](CCC(=O)O)C(=O)N[C@H](C(N)=O)[C@@H](C)CC)NC(=O)[C@H](Cc4c[nH]c5ccccc45)NC(=O)[C@H](CC(C)C)NC(=O)[C@H](CCCCN)NC(=O)[C@H](CSSC[C@H](NC(=O)[C@H]([C@@H](C)O)NC(=O)[C@H](Cc4c[nH]c5ccccc45)NC1=O)C(=O)N[C@@H](CC(=O)O)C(=O)N[C@@H](CO)C(=O)N[C@@H](CCCCN)C(=O)N[C@@H](CCCNC(=N)N)C(=O)N[C@@H](C)C(=O)N3)NC(=O)[C@H](CCCNC(=N)N)NC(=O)[C@H](CC(C)C)NC(=O)CNC(=O)[C@H](CCCCNC(=O)CCOCCOCCOCCOCCOCCOCCOCCOCCOCCOCCOCCOCCN)NC2=O [compound 471] | 6 | 110 |  |
| C#CC[C@H](N)C(=O)N[C@@H](Cc1ccc(O)cc1)C(=O)N[C@H]1CSSC[C@@H]2NC(=O)[C@@H]3CSSC[C@@H](C(=O)N[C@@H](CCCNC(=N)N)C(=O)N[C@@H](CCCCN)C(=O)N[C@@H](CCC(=O)O)C(=O)N[C@H](C(N)=O)[C@@H](C)CC)NC(=O)[C@H](Cc4c[nH]c5ccccc45)NC(=O)[C@H](CC(C)C)NC(=O)[C@H](CCCCN)NC(=O)[C@H](CSSC[C@H](NC(=O)[C@H]([C@@H](C)O)NC(=O)[C@H](Cc4c[nH]c5ccccc45)NC(=O)[C@H](CCCC)NC(=O)[C@H](Cc4cccc5ccccc45)NC(=O)[C@H](CCCCN)NC(=O)[C@H](CCC(N)=O)NC1=O)C(=O)N[C@@H](CC(=O)O)C(=O)N[C@@H](CO)C(=O)N[C@@H](CCCCN)C(=O)N[C@@H](CCCNC(=N)N)C(=O)N[C@@H](C)C(=O)N3)NC(=O)[C@H](CCCNC(=N)N)NC(=O)[C@H](CC(C)C)NC(=O)CNC(=O)[C@H](CCC(=O)O)NC2=O [compound 841] |  |  | 70.9 |
| CC[C@H](C)[C@H](NC(=O)[C@H](Cc1ccc(O)cc1)NC(=O)[C@H](CCCCN)NC(=O)[C@H](CCCNC(=N)N)NC(=O)[C@@H]1CSSC[C@@H]2NC(=O)[C@H](C)NC(=O)[C@H](CCCNC(=N)N)NC(=O)[C@H](CCCCN)NC(=O)[C@H](CO)NC(=O)[C@H](CC(=O)O)NC(=O)[C@@H]3CSSC[C@H](NC(=O)[C@H](CCC(=O)O)NC(=O)[C@H](CC(C)C)NC(=O)CNC(=O)[C@H](CCC(=O)O)NC(=O)[C@H](CSSC[C@H](NC(=O)[C@@H](N)Cc4ccc(O)cc4)C(=O)N[C@@H](CCC(N)=O)C(=O)N[C@@H](CCCCN)C(=O)N[C@@H](Cc4ccccc4)C(=O)N[C@@H](CCSC)C(=O)N[C@@H](Cc4c[nH]c5ccccc45)C(=O)N[C@@H]([C@@H](C)O)C(=O)N3)NC2=O)C(=O)N[C@@H](CCCCN)C(=O)N[C@@H](CC(C)C)C(=O)N[C@@H](Cc2c[nH]c3ccccc23)C(=O)N1)C(N)=O [compound 193] | 217 | 217 |  |
